Measured values from ChEMBL document CHEMBL1149205, “Biological evaluation of substituted quinolines” (Bioorg Med Chem Lett, 2004).

Tests used:
MRC5 = experiment: Cytotoxicity in MRC-5 cells; type: functional, cell-based; settings: Homo sapiens
Plasmodium falciparum [1] = experiment: In vitro anti-protozoal activity against Plasmodium falciparum W2; type: functional, organism-based
Leishmania amazonensis = experiment: In vitro anti protozoal activity against Leishmania amazonensis strain MHOM/ET/L82/LV9 was determined; type: functional, organism-based
Trypanosoma cruzi = experiment: In vitro anti protozoal activity against Trypanosoma cruzi strain Tulahuen CL2 was determined; type: functional, organism-based
Plasmodium falciparum [2] = experiment: In vitro anti-protozoal activity against Plasmodium falciparum Ghana strain; type: functional, organism-based
[3] = test system: Human T-cell leukemia virus type I; experiment: Inhibitory activity against proliferation of HTLV-1 transformed cell lines (HUT-102) at 10 uM; type: functional; settings: Primate T-lymphotropic virus 1, HuT-102
Homo sapiens = species on record: Homo sapiens; experiment: Cytotoxicity in macrophages; type: functional
Trypanosoma brucei = experiment: In vitro anti protozoal activity against Trypanosoma brucei strain S427 was determined; type: functional, organism-based
Leishmania infantum = experiment: In vitro anti protozoal activity against Leishmania infantum strain MHOM-ET-67/L82 was determined; type: functional, organism-based

Molecule	IC50 (Plasmodium falciparum [1])	IC50 (Leishmania amazonensis)	IC50 (Trypanosoma cruzi)	IC50 (Plasmodium falciparum [2])	IC50 (Trypanosoma brucei)	IC50 (Leishmania infantum; Leishmania infantum)	IC50 (MRC5)	inhibition at 10 µM [3]	IC50 (Homo sapiens)	IC50 (Leishmania infantum)
O=[N+]([O-])c1ccc(/C=C/c2ccc3ccccc3n2)cc1	> 32 µM	> 32 µM	28 µM	> 32 µM	> 32 µM	> 32 µM	> 32 µM	0%	> 32 µM	–
Br/C=C/c1ccc2ccccc2n1	–	3 µM	0.15 µM	> 32 µM	1 µM	2 µM	> 32 µM	–	13 µM	–
CN(C)c1ccc(/C=C/c2ccc3ccccc3n2)cc1	> 32 µM	16 µM	17 µM	> 32 µM	6 µM	> 32 µM	> 32 µM	26%	16 µM	–
O=[N+]([O-])c1ccc(C(O)Cc2ccc3ccccc3n2)cc1 (centres undefined)	6 µM	> 32 µM	> 32 µM	15 µM	> 32 µM	> 32 µM	> 32 µM	10%	> 32 µM	–
O=C(/C=C/c1ccc2ccccc2n1)N1CCOCC1	16 µM	> 32 µM	13 µM	12 µM	> 32 µM	18 µM	> 32 µM	0%	> 32 µM	–
O=C(/C=C/c1ccc2ccccc2n1)N1CCCCC1	17 µM	18 µM	17 µM	15 µM	> 32 µM	16 µM	> 32 µM	0%	> 32 µM	–
CN1CCN(C(=O)/C=C/c2ccc3ccccc3n2)CC1	> 32 µM	> 32 µM	> 32 µM	> 32 µM	> 32 µM	> 32 µM	> 32 µM	0%	> 32 µM	–
O=[N+]([O-])/C=C/c1ccc2ccccc2n1	14 µM	> 32 µM	1 µM	16 µM	18 µM	> 8 µM	22 µM	76%	> 32 µM	–
Fc1ccc(/C=C/c2ccc3ccccc3n2)cc1	> 32 µM	> 32 µM	22 µM	> 32 µM	> 32 µM	> 32 µM	> 32 µM	26%	> 32 µM	–
OC(Cc1ccc2ccccc2n1)c1ccc(F)cc1 (centres undefined)	1 µM	> 32 µM	> 32 µM	4 µM	> 32 µM	> 32 µM	> 32 µM	0%	> 32 µM	–
O=C/C=C/c1ccc2ccccc2n1	–	4 µM	5 µM	31 µM	19 µM	2 µM	16 µM	34%	9 µM	–
CCCCCCCCCCCCCCCCOP(=O)([O-])OCC[N+](C)(C)C [MILTEFOSINE]	–	3.12 µM	–	–	–	–	–	–	12.5 µM	–
CC1CS(=O)(=O)CCN1/N=C/c1ccc([N+](=O)[O-])o1 (centres undefined) [NIFURTIMOX]	–	–	0.45 µM	–	–	–	–	–	–	–
Cc1ccc(C(=O)Nc2ccc(S(=O)(=O)O)c3cc(S(=O)(=O)O)cc(S(=O)(=O)O)c23)cc1NC(=O)c1cccc(NC(=O)Nc2cccc(C(=O)Nc3cc(C(=O)Nc4ccc(S(=O)(=O)O)c5cc(S(=O)(=O)O)cc(S(=O)(=O)O)c45)ccc3C)c2)c1 [SURAMIN]	–	–	–	–	0.09 µM	–	–	–	–	–
MEGLUMINE ANTIMONATE	–	–	–	–	–	–	–	–	–	7.15 µM

Now from value to molecule, other results behind:

IC50 (Plasmodium falciparum [1])	IC50 (Leishmania amazonensis)	IC50 (Trypanosoma cruzi)	IC50 (Plasmodium falciparum [2])	IC50 (Trypanosoma brucei)	IC50 (Leishmania infantum; Leishmania infantum)	Molecule	IC50 (MRC5)	inhibition at 10 µM [3]	IC50 (Homo sapiens)	IC50 (Leishmania infantum)
> 32 µM	> 32 µM	> 32 µM	> 32 µM	> 32 µM	> 32 µM	COc1cc(NCc2ccc3ccccc3n2)cc(OC)c1OC	> 32 µM	0%	> 32 µM	–
> 32 µM	> 32 µM	> 32 µM	> 32 µM	26 µM	22 µM	COc1ccc(/C=C/c2ccc3ccccc3n2)cc1OC	> 32 µM	0%	> 32 µM	–
30 µM	> 32 µM	> 32 µM	> 32 µM	18 µM	> 32 µM	COc1ccc(/C=C/c2ccc3ccccc3n2)c(OC)c1	> 32 µM	0%	> 32 µM	–
> 32 µM	> 32 µM	> 32 µM	> 32 µM	> 32 µM	> 32 µM	CN(C)c1ccc(C(O)Cc2ccc3ccccc3n2)cc1 (centres undefined)	> 32 µM	0%	> 32 µM	–
> 32 µM	> 32 µM	> 32 µM	> 32 µM	> 32 µM	> 32 µM	COc1ccc(C(O)Cc2ccc3ccccc3n2)cc1OC (centres undefined)	> 32 µM	0%	> 32 µM	–
> 32 µM	> 32 µM	> 32 µM	> 32 µM	> 32 µM	> 32 µM	Fc1ccccc1NCc1ccc2ccccc2n1	> 32 µM	0%	> 32 µM	–
> 32 µM	> 32 µM	> 32 µM	> 32 µM	> 32 µM	> 32 µM	OC(Cc1ccc2ccccc2n1)c1ccco1 (centres undefined)	> 32 µM	0%	> 32 µM	–
